ChEMBL document CHEMBL4376890, “Unique Sulfur-Aromatic Interactions Contribute to the Binding of Potent Imidazothiazole Indoleamine 2,3-Dioxygenase Inhibitors” (J Med Chem, 2020)

Biological target: T1, Indoleamine 2,3-dioxygenase 1 (Homo sapiens, UniProt P14902)
Test: Inhibition of recombinant full-length N-terminal His-tagged human IDO1 (1 to 403 residues) expressed in Escherichia coli BL21(DE3) cells

T1 sequence (P14902 whole entry, the tested form may be a part): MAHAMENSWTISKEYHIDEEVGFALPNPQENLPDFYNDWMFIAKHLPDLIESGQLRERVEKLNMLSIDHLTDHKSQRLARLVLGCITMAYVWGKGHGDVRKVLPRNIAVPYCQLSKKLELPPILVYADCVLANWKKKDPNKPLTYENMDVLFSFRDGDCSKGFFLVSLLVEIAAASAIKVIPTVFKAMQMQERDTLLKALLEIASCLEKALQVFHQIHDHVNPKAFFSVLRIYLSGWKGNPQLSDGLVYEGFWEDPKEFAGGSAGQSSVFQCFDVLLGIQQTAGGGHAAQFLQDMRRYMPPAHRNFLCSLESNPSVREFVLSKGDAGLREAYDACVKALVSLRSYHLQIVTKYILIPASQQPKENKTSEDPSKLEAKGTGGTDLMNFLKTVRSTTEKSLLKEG

Compared with S=C(NCc1cnc2scc(C#CC3CC3)n12)Nc1cccc(Cl)c1, O=C(NCc1cnc2scc(C#CC3CC3)n12)Nc1cccc(Cl)c1 is 1.5-fold higher in IC50: 27.6 nM for the first, 42 nM for the second.

OC(c1ccccc1)c1cnc2scc(-c3ccc(Br)cc3)n12 (configuration not stated) and OC(c1cnc2scc(-c3ccc(Br)cc3)n12)C1CCCCC1 (configuration not stated) are within 1.5-fold of each other in IC50: 1090 nM for the first, 1280 nM for the second.

Going from N#Cc1ccc(NC(=O)NCc2cnc3scc(C#Cc4cccnc4)n23)cc1 to N#Cc1ccc(NC(=O)NCc2cnc3scc(C#Cc4ccsc4)n23)cc1, the IC50 falls from 3200 nM to 73.9 nM (43-fold). The second is the more potent here.

First: CCCCNC(=S)NCc1cnc2scc(C#CC3CC3)n12
Second: N#Cc1ccc(NC(=S)NCc2cnc3scc(C#CC4CC4)n23)cc1
The IC50 of the first is 31-fold higher: 502 nM for the first, 16.4 nM for the second.

Compared with O=C(CSc1nnc2scc(-c3ccc(Cl)cc3)n12)c1ccc(Br)cc1, O=C(CSc1nnc2scc(-c3ccc(Br)cc3)n12)c1ccc(Br)cc1 is higher in IC50: 339 nM for the first, greater than 10000 nM for the second. The first is the more potent here.

Compared with N#Cc1ccc(NC(=O)NCc2cnc3scc(C#CC4CCCC4)n23)cc1, N#Cc1ccc(NC(=O)NCc2cnc3scc(C#CC4CC4)n23)cc1 is 4.1-fold lower in IC50: 418 nM for the first, 102 nM for the second. The second is the more potent here.

N#Cc1ccc(NC(=O)NCc2cnc3scc(C#Cc4ccc(Cl)s4)n23)cc1 and O=S(=O)(Cc1cccc(Cl)c1)NCc1cnc2scc(-c3ccc(Br)cc3)n12 are within 1.5-fold of each other in IC50: 823 nM for the first, 744 nM for the second.

First: OC(c1cnc2scc(C#CC3CC3)n12)C1CCCCC1 (configuration not stated)
Second: O=C(CSc1nnc2scc(C3CCCCC3)n12)c1ccc(Br)cc1
The IC50 of the first is lower: 7150 nM for the first, greater than 10000 nM for the second.

Going from Brc1ccc(-c2csc3nccn23)cc1 to Cc1sc2nccn2c1-c1ccc(Br)cc1, the IC50 rises from 380 nM to 3110 nM (8.2-fold). The first is the more potent here.

CCCS(=O)(=O)NCc1cnc2scc(-c3ccc(Br)cc3)n12 and Cc1ccc(CS(=O)(=O)NCc2cnc3scc(-c4ccc(Br)cc4)n23)cc1 are within 1.5-fold of each other in IC50: 1070 nM for the first, 855 nM for the second.

CC(C)CSc1nnc2scc(-c3ccc(Cl)cc3)n12 gave an IC50 of 256 nM.

Biological target: T1, Indoleamine 2,3-dioxygenase 1
Test: Inhibition of human […] by HTS assay

For O=C(CSc1nnc2scc(-c3ccccc3)n12)Nc1ccc(Cl)cc1, the IC50 was 1190 nM.
